{"source": "patent US6313170A", "about": "“L-threonate ferrous, as well as pharmaceutical composition and use for improving and treating human anemia thereof” (priority 1997, dated 2001)", "key": {"[1]": {"settings": "rat, in vivo, po, 72 h", "procedure": "Its chemical formula is Fe(C4 H7 O5)2.2H2 O, molecular weight:362.\nAnimals: Male Wistar rats were supplied by Experimental Animal Center, Tumor Institute of Heilongjian Province with body weight of 140 g-180 g. The iron-low diet contains iron 0.9 mg/kg.\n50 rats were randomly divided into 5 groups of [19] 10 rats each. On this basis of administration of iron-low diet, each group of rats was administered respectively by gavage according to the dosage below:\nHigh dosage group: Fe, 5 mg/kg, ferrous L-threonate, 32.32 mg/kg;\nMiddle dosage group: Fe, 2.5 mg/kg, ferrous L-threonate, 16.16 mg/kg;\nLow dosage group: Fe, 1.0 mg/kg, ferrous L-threonate, 6.46 mg/kg;\nPositive drug control group (ferrous sulfate): Fe, 2.5 mg/kg, ferrous sulfate, 12.43 mg/kg;\nNegative drug control group (iron-low diet): Fe, 0.9 mg/kg (measured value).\nAfter the end of 7 days feeding normal diet period, rats were supplemented with iron-low diet prepared according to AOAC formula for another 7 days. The 1-3 groups were treatment groups and supplemented with ferrous L-threonate 32.32 mg/kg (5 mgFe/kg, high dose group), 16.16 mg/kg (2.5 mg Fe/kg, middle dose group) and 6.46 mg/kg (1.0 mg Fe/kg, low dose group), respectively. The forth, positive drug control group, was provided with ferrous sulfate 12.43 mg/kg (2.5 mg Fe/kg). The fifth was model control group and was offered with iron-low diet (0.9 mg Fe/kg). Each groups were arranged to take drug one time by I.G (gavage) method per day and in the same time were supplemented with deionized water.\nThe test was sustained three days. Each rat's excrement was collected, dried at temperature 80-90° C., weighed and ground into 40-60 meshes. About 0.5 to 0.6 gram sample was taken and a mixture of nitric acid and perchloric acid at a ratio of 4:1 was added therein until completion of digestion. The constant volume is 10 ml. The iron content of excrement was determined by atomic absorption method and the iron absorptive rate for each rat can be calculated by the formula listed below. [formula]"}, "mice testicle cells": {"tested_on": "mice testicle cells", "settings": "mouse, in vivo"}, "Blood-loss Anemia Model": {"tested_on": "Blood-loss Anemia Model", "assay": "Blood-loss anemia model, rats;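 further: male Wistar rats made anemic by repeated orbital bloodletting, kept on iron-low diet with deionized water while dosed, compared against untreated anemic model and normal-diet control groups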", "settings": "for Blood hemochrome content / GPC (blood granulophilocyte) / RBC: n=10", "experimental": "Ferrous gluconate, the positive control drug, yellow-green powder and 11% ferrous content, was purchased from Ganjian Pharmaceutical Company of Jianxi Province. Ferrous fumarate, 6.4% ferrous content, was purchased from the 18th Pharmaceutical Company of Shanghai. All drugs were diluted by distilled water.\n7 groups were prepared as hemolytic anemia groups and one group was taken as normal control group supplemented with normal diet and water. The hemolytic anemia model was prepared by subjecting rats to inner canthus bloodletting of right eye through capillary glass tube. The first bloodletting content was 2.0 ml for each rat and in that time the range of hemochrome for rats was from 9.78 to 10.65 g %. Two days later, the second bloodletting (2 ml/rat) was carried out with the hemochrome values of 7.40-7.88 g %. The total bloodletting volume for each rat was 4 ml and was 32.9% in volume of the whole blood circulating the body.\nWhile one hemolytic anemia group and one normal control group were taken as reference groups compared with other groups left. These two groups' rats were killed and the blood parameters were recorded. Other six groups now were randomly divided into three treatment groups of ferrous L-threonate with high, middle and low dosages respectively, two positive drugs control groups of ferrous gluconate and ferrous fumarate and one model group. At the end of 12 days and 18 days experimental periods, 5 and 10 rats of each group were killed correspondingly. During the course of experiment, the variations of hemochrome content were examined with 6 days interval.\nWhile Element ferrous content 8.64 mg/kg as ferrous gluconate or ferrous fumarate was for positive drug control group. The groups for blood-loss anemia were provided iron-low diet and deionized water during the period of the administration of drugs, while the normal animal control group was provided normal diet and deionized water."}, "[2]": {"settings": "8.64 mg Fe/kg (middle dosage / positive controls), 12 days"}, "[3]": {"settings": "8.64 mg Fe/kg (middle dosage / positive controls), 18 days"}, "[4]": {"settings": "high dosage, 17.28 mg Fe/kg, 12 days"}, "[5]": {"settings": "high dosage, 17.28 mg Fe/kg, 18 days"}, "[6]": {"settings": "low dosage, 4.32 mg Fe/kg, 12 days"}, "[7]": {"settings": "low dosage, 4.32 mg Fe/kg, 18 days"}}, "note": "Where two headings read alike, the source gives them in different places.", "data": [{"substance": "ferrous L-threonate", "values": [{"measurement": "Absorptivity", "setting": "[1]; 1 mg/kg", "result": "59.10 ± 5.01", "unit": "%"}, {"measurement": "Absorptivity", "setting": "[1]; 2.5 mg/kg", "result": "54.90 ± 4.08", "unit": "%"}, {"measurement": "Absorptivity", "setting": "[1]; 5 mg/kg", "result": "42.60 ± 1.79", "unit": "%"}, {"measurement": "chromosome aberration test result", "setting": "mice testicle cells", "result": "negative"}, {"measurement": "Blood hemochrome content", "setting": "Blood-loss Anemia Model; 8.64 mg Fe/kg (middle dosage / positive controls), 6 days after treatment", "result": "8.35 ± 0.21"}, {"measurement": "Blood hemochrome content", "setting": "Blood-loss Anemia Model; 8.64 mg Fe/kg (middle dosage / positive controls), 12 days after treatment", "result": "10.67 ± 0.37"}, {"measurement": "GPC (blood granulophilocyte)", "setting": "Blood-loss Anemia Model; [2]", "result": 12.58, "unit": "%"}, {"measurement": "RBC", "setting": "Blood-loss Anemia Model; [2]", "result": "4.81e+12", "unit": "L⁻¹"}, {"measurement": "Blood hemochrome content", "setting": "Blood-loss Anemia Model; 8.64 mg Fe/kg (middle dosage / positive controls), 18 days after treatment", "result": "12.14 ± 0.27"}, {"measurement": "GPC (blood granulophilocyte)", "setting": "Blood-loss Anemia Model; [3]", "result": 8.44, "unit": "%"}, {"measurement": "RBC", "setting": "Blood-loss Anemia Model; [3]", "result": "5.21e+12", "unit": "L⁻¹"}, {"measurement": "Blood hemochrome content", "setting": "Blood-loss Anemia Model; 8.64 mg Fe/kg (middle dosage / positive controls), before treatment", "result": "7.40 ± 0.54"}, {"measurement": "Blood hemochrome content", "setting": "Blood-loss Anemia Model; high dosage, 17.28 mg Fe/kg, 6 days after treatment", "result": "8.70 ± 0.43"}, {"measurement": "Blood hemochrome content", "setting": "Blood-loss Anemia Model; high dosage, 17.28 mg Fe/kg, 12 days after treatment", "result": "11.01 ± 0.34"}, {"measurement": "GPC (blood granulophilocyte)", "setting": "Blood-loss Anemia Model; [4]", "result": 10.04, "unit": "%"}, {"measurement": "RBC", "setting": "Blood-loss Anemia Model; [4]", "result": "5.67e+12", "unit": "L⁻¹"}, {"measurement": "Blood hemochrome content", "setting": "Blood-loss Anemia Model; high dosage, 17.28 mg Fe/kg, 18 days after treatment", "result": 12.40}, {"measurement": "GPC (blood granulophilocyte)", "setting": "Blood-loss Anemia Model; [5]", "result": 7.84, "unit": "%"}, {"measurement": "RBC", "setting": "Blood-loss Anemia Model; [5]", "result": "5.84e+12", "unit": "L⁻¹"}, {"measurement": "Blood hemochrome content", "setting": "Blood-loss Anemia Model; high dosage, 17.28 mg Fe/kg, before treatment", "result": "7.88 ± 0.28"}, {"measurement": "Blood hemochrome content", "setting": "Blood-loss Anemia Model; low dosage, 4.32 mg Fe/kg, 6 days after treatment", "result": "8.00 ± 0.42"}, {"measurement": "Blood hemochrome content", "setting": "Blood-loss Anemia Model; low dosage, 4.32 mg Fe/kg, 12 days after treatment", "result": "10.20 ± 0.49"}, {"measurement": "GPC (blood granulophilocyte)", "setting": "Blood-loss Anemia Model; [6]", "result": 13.12, "unit": "%"}, {"measurement": "RBC", "setting": "Blood-loss Anemia Model; [6]", "result": "4.242e+12", "unit": "L⁻¹"}, {"measurement": "Blood hemochrome content", "setting": "Blood-loss Anemia Model; low dosage, 4.32 mg Fe/kg, 18 days after treatment", "result": "11.26 ± 0.79"}, {"measurement": "GPC (blood granulophilocyte)", "setting": "Blood-loss Anemia Model; [7]", "result": 8.91, "unit": "%"}, {"measurement": "RBC", "setting": "Blood-loss Anemia Model; [7]", "result": "4.76e+12", "unit": "L⁻¹"}, {"measurement": "Blood hemochrome content", "setting": "Blood-loss Anemia Model; low dosage, 4.32 mg Fe/kg, before treatment", "result": "7.61 ± 0.53"}, {"measurement": "effect on treating IDA compared with both ferrous gluconate and ferrous fumarate", "setting": "Blood-loss Anemia Model; same ferrous dosage", "result": "better effects on treating IDA compared with both ferrous gluconate and ferrous fumarate"}, {"measurement": "improvement and cure of anemia compared with ferrous gluconate and ferrous fumarate", "setting": "Blood-loss Anemia Model; summary statement covering hemolytic anemia, blood-loss anemia and nutritional IDA", "result": "can significantly improve and cure hemolytic anemia, blood-loss anemia and nutritional IDA"}]}]}
